Data: ChEMBL document CHEMBL4351024, “Steroidal N-Sulfonylimidates: Synthesis and biological evaluation in breast cancer cells” (Eur J Med Chem, 2019)
Active and inactive are the calls of the source. The calls are words filed in the database; no cut-off is given here.

What was measured:
MCF7 = assay: Antiproliferative activity against human MCF7 cells assessed as reduction in cell viability after 72 hrs by MTT assay; assay type: functional, cell-based
[1] = Effect on RAS/RAF/MEK/ERK pathway in human MDA-MB-231 cells assessed as increase in ERK1/2 phosphorylation up to 50 uM measured after 48 hrs by Western blot analysis; assay type: cell-based
MCF-10A [2] = assay: Cytotoxicity against human MCF10A assessed as reduction in cell viability at 25 uM after 72 hrs by MTT assay; assay type: cell-based
MDA-MB-231 [3] = assay: Antiproliferative activity against human MDA-MB-231 cells assessed as reduction in cell viability after 72 hrs by MTT assay; assay type: functional, cell-based; details: MDA-MB-231, 72 h
MDA-MB-231 [4] = assay: Downregulation of cyclin-D1 expression in human MDA-MB-231 cells up to 50 uM measured after 48 hrs by Westernblot analysis; assay type: functional, cell-based
MDA-MB-231 [5] = assay: Down regulation of slug levels in human MDA-MB-231 cells up to 50 uM measured after 48 hrs by Westernblot analysis; assay type: functional, cell-based
[6] = target: Transcription factor p65 (Homo sapiens) (UniProt Q04206); assay: Down regulation of NFkappaB p65 phosphorylation in human MDA-MB-231 cells up to 50 uM measured after 48 hrs by Western blot analysis; assay type: cell-based
Chain of Transcription factor p65 (Homo sapiens) (Q04206 whole entry): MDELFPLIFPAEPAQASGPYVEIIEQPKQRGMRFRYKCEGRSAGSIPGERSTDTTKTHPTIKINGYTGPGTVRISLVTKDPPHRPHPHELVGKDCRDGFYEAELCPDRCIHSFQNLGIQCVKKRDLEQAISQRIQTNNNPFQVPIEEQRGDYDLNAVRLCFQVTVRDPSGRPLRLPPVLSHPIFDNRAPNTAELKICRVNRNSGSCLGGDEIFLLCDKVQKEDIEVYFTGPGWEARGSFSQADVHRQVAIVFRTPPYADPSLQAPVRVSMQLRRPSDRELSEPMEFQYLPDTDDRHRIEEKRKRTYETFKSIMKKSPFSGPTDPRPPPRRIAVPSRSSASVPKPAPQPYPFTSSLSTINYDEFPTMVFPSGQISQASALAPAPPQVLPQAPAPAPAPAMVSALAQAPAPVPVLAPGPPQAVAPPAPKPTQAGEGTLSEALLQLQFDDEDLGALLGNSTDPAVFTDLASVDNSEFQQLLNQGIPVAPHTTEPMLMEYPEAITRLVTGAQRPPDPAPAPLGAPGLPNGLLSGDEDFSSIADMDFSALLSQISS

MDA-MB-231 [7] = assay: Effect on EGFR expression in human MDA-MB-231 cells up to 50 uM measured after 48 hrs by Westernblot analysis; assay type: functional, cell-based
[8] = target: Serine/threonine-protein kinase mTOR (Homo sapiens) (UniProt P42345); assay: Inhibition of mTOR phosphorylation in human MDA-MB-231 cells up to 50 uM measured after 48 hrs by Western blot analysis; assay type: cell-based
MCF-10A [9] = assay: Cytotoxicity against human MCF10A assessed as reduction in cell viability up to 12 uM after 72 hrs by MTT assay; assay type: cell-based
[10] = Homo sapiens, MCF7, 72 h, read-out: IC50

COc1ccc2c(c1)CC[C@@H]1[C@@H]2CC[C@@]2(C)[C@H]1CC[C@]2(C/C(=N\S(=O)(=O)c1ccc(C)cc1)OC1CCCCC1)OC
IC50 (MCF7; [10]): 20 µM

Cc1ccc(S(=O)(=O)NC(=O)C[C@]2(O)CC[C@H]3[C@@H]4CCc5cc(O)ccc5[C@H]4CC[C@@]32C)cc1
IC50 (MCF7; mcf7): Not Active

CCO/C(C[C@]1(O)CC[C@H]2[C@@H]3CCc4cc(OCc5ccccc5)ccc4[C@H]3CC[C@@]21C)=N/S(=O)(=O)c1ccc(C)cc1
IC50 (MCF7; mcf7): Not Active

CCCO/C(C[C@]1(O)CC[C@H]2[C@@H]3CCC4=CC(=O)CC[C@]4(C)[C@H]3CC[C@@]21C)=N/S(=O)(=O)c1ccc(C)cc1
IC50 (MCF7; [10]): 22.4 µM

CCO/C(C[C@]1(O)CC[C@H]2[C@@H]3CCc4cc(OS(=O)(=O)c5ccc(C)cc5)ccc4[C@H]3CC[C@@]21C)=N/S(=O)(=O)c1ccc(C)cc1
IC50 (MCF7; mcf7): Not Active

CCCCCCO/C(C[C@]1(OC)CC[C@H]2[C@@H]3CCc4cc(OC)ccc4[C@H]3CC[C@@]21C)=N/S(=O)(=O)c1ccc(C)cc1
IC50 (MCF7; mcf7): Not Active

CCO/C(CC1=CC[C@H]2[C@@H]3CCc4cc(OC(C)=O)ccc4[C@H]3CC[C@]12C)=N/S(=O)(=O)c1ccc(C)cc1
IC50 (MCF7; [10]): 5.6 µM

CCO/C(C[C@]1(O)CC[C@H]2[C@@H]3CCc4cc(OC(C)=O)ccc4[C@H]3CC[C@@]21C)=N/S(=O)(=O)c1ccc(C)cc1
IC50 (MCF7; [10]): 12.2 µM

CCCCO/C(C[C@]1(OC)CC[C@H]2[C@@H]3CCc4cc(OC)ccc4[C@H]3CC[C@@]21C)=N/S(=O)(=O)c1ccc(C)cc1
IC50 (MCF7; [10]): 10.5 µM

CCO/C(CC1=CC[C@H]2[C@@H]3CCc4cc(OC)ccc4[C@H]3CC[C@]12C)=N/S(=O)(=O)c1ccc(C)cc1
IC50 (MCF7; [10]): 9.5 µM

COc1ccc2c(c1)CC[C@@H]1[C@@H]2CC[C@@]2(C)[C@H]1CC[C@]2(C/C(=N\S(=O)(=O)c1ccc(C)cc1)OCC(C)C)OC
IC50 (MCF7; [10]): 8.5 µM

COc1ccc2c(c1)CC[C@@H]1[C@@H]2CC[C@@]2(C)[C@H]1CC[C@]2(C/C(=N\S(=O)(=O)c1ccc(C)cc1)OC(C)C)OC
Activity [1]: Active
Activity (MCF-10A [2]): Toxic
IC50 (MDA-MB-231 [3]): 11.3 µM
Activity (MDA-MB-231 [4]): Active
Activity (MDA-MB-231 [5]): Active
Activity [6]: Active
Activity (MDA-MB-231 [7]): inactive
inhibition [8]: inactive
Activity (MCF-10A [9]): Non-Toxic
IC50 (MCF7; [10]): 4.3 µM

CCO/C(C[C@]1(O)CC[C@H]2[C@@H]3CCc4cc(OC)ccc4[C@H]3CC[C@@]21C)=N/S(=O)(=O)c1ccc(C)cc1
IC50 (MCF7; [10]): 11.8 µM

COc1ccc2c(c1)CC[C@@H]1[C@@H]2CC[C@@]2(C)[C@H]1CC[C@]2(C/C(=N\S(=O)(=O)c1ccc(C)cc1)OCCC(C)C)OC
IC50 (MCF7; [10]): 21.7 µM

CCCO/C(C[C@]1(O)CC[C@H]2[C@@H]3CCc4cc(OC(C)=O)ccc4[C@H]3CC[C@@]21C)=N/S(=O)(=O)c1ccc(C)cc1
IC50 (MCF7; [10]): 17.9 µM

CCO/C(C[C@]1(O)CC[C@H]2[C@@H]3CCc4cc(O)ccc4[C@H]3CC[C@@]21C)=N/S(=O)(=O)c1ccc(C)cc1
IC50 (MCF7; [10]): 15.3 µM

CCO/C(C[C@]1(OC)CC[C@H]2[C@@H]3CCc4cc(OC)ccc4[C@H]3CC[C@@]21C)=N/S(=O)(=O)c1ccc(C)cc1
IC50 (MCF7; [10]): 7 µM

COc1ccc2c(c1)CC[C@@H]1[C@@H]2CC[C@@]2(C)[C@H]1CC[C@]2(C/C(=N\S(=O)(=O)c1ccc(C)cc1)OCCCCl)OC
IC50 (MCF7; [10]): 11.4 µM

COc1ccc2c(c1)CC[C@@H]1[C@@H]2CC[C@@]2(C)[C@H]1CC[C@@]2(O)CC(=O)NS(=O)(=O)c1ccc(C)cc1
IC50 (MCF7; mcf7): Not Active

CCO/C(C[C@]1(O)CC[C@H]2[C@@H]3CCC4=CC(=O)CC[C@]4(C)[C@H]3CC[C@@]21C)=N/S(=O)(=O)c1ccc(C)cc1
IC50 (MCF7; [10]): 9.9 µM

CCCO/C(C[C@]1(OC)CC[C@H]2[C@@H]3CCc4cc(OC)ccc4[C@H]3CC[C@@]21C)=N/S(=O)(=O)c1ccc(C)cc1
IC50 (MCF7; [10]): 4.5 µM

COc1ccc2c(c1)CC[C@@H]1[C@@H]2CC[C@@]2(C)[C@H]1CC[C@]2(C/C(=N\S(=O)(=O)c1ccc(C)cc1)OCC(Cl)(Cl)Cl)OC
IC50 (MCF7; [10]): 22.2 µM

CCCCCCCO/C(C[C@]1(OC)CC[C@H]2[C@@H]3CCc4cc(OC)ccc4[C@H]3CC[C@@]21C)=N/S(=O)(=O)c1ccc(C)cc1
IC50 (MCF7; mcf7): Not Active

CCCO/C(C[C@]1(O)CC[C@H]2[C@@H]3CCc4cc(OC)ccc4[C@H]3CC[C@@]21C)=N/S(=O)(=O)c1ccc(C)cc1
IC50 (MCF7; [10]): 15.5 µM

CCCCCCCCCCCCO/C(C[C@]1(OC)CC[C@H]2[C@@H]3CCc4cc(OC)ccc4[C@H]3CC[C@@]21C)=N/S(=O)(=O)c1ccc(C)cc1
IC50 (MCF7; mcf7): Not Active
